Experimental data taken from patent US11998533B2, “Pharmaceutical compositions comprising LTV-17 and beta-lactamase inhibitors and their use as antibacterial agents” (FEDORA PHARMACEUTICALS INC., priority 2021, dated 2024).

Columns and labels:
Type in all cases: cell-based
Proteus mirabilis = experiment: MIC broth microdilution, Proteus mirabilis isolate; conditions: isolate 1159308, CMY-DHA, LTV-17 alone
Procedure: (§1) Bacterial isolates: Representative resistant strains of Escherichia coli, Citrobacter freundii, Enterobacter cloacae, Klebsiella pneumoniae, and Proteus mirabilis harboring class-C β-lactamase producers were used to test for the synergistic effect of adding a β-lactamase inhibitor (II^j) to the antibiotic LTV-17 (I) (Table 1).
(§2) Minimum inhibitory concentration (MIC) test procedure: All antibiotics were tested by both the broth microdilution methods according to the Clinical and Laboratory Standards Institute (CLSI) recommendations (M07), and a modified CLSI method that included iron-depleted CA-MHB protocol. The MIC was defined as the lowest concentration of the antibiotic to produce clear wells in the 96-well plates. MIC interpretations were based on the CLSI M100-S23 (2013) and European Committee on Antimicrobial Susceptibility Testing (EUCAST; 2013) breakpoint criteria. Synergistic activity was calculated based on the number of two-fold dilution reduction of the MIC using LTV-17 (I) plus β-lactamase inhibitor Avibactam (II^j) compared to MIC of LTV-17 (I) tested alone against the same strains. The higher the number of two-fold reduction, the stronger the synergy is.
(§3) Avibactam was tested at a fixed concentration of 4 μg/mL.

Klebsiella pneumoniae = experiment: MIC broth microdilution, Klebsiella pneumoniae isolate; conditions: isolate 1167846, CMY-DHA, LTV-17 alone
Procedure: as §1, §2, §3

[1] = system: Citrobacter freundii species complex; experiment: MIC broth microdilution, Citrobacter freundii species complex isolate; conditions: isolate 1056585, Elevated AmpC, LTV-17 alone
Procedure: as §1, §2, §3

[2] = system: Enterobacter cloacae species complex; experiment: MIC broth microdilution, Enterobacter cloacae species complex isolates; conditions: LTV-17 alone
Procedure: as §1, §2, §3

Escherichia coli = experiment: MIC broth microdilution, Escherichia coli isolates; conditions: LTV-17 alone
Procedure: as §1, §2, §3

Question: How did the MIC (Proteus mirabilis) turn out when CC(C)(O/N=C(\C(=O)N[C@H]1CON(C2(C(=O)O)C[C@H](N3C(=O)c4cc(O)c(O)cc4C3=O)C(=O)O2)C1=O)c1csc(N)n1)C(=O)O (stereo partly drawn) [LTV-17, (4S)-2-[(4S)-4-{[(2Z)-2-(2-amino-1,3-thiazol-4-yl)-2-{[(2-carboxypropan-2-yl)oxy]imino}acetyl]amino}-3-oxo-1,2-oxazolidin-2-yl]-4-(5,6-dihydroxy-1,3-dioxo-1,3-dihydro-2H-isoindol-2-yl)-5-oxooxolane-2-carboxylic acid] was run?
Answer: 4 µg/mL

Question: And the MIC (Klebsiella pneumoniae)?
Answer: 1 µg/mL

Question: And the MIC [1]?
Answer: 0.5 µg/mL

Question: And the MIC ([2]; isolate 552115, Elevated AmpC)?
Answer: 2 µg/mL

Question: And the MIC ([2]; isolate 1057610, Elevated AmpC)?
Answer: 0.25 µg/mL

Question: What about the MIC ([2]; isolate 1083996, Elevated AmpC) of the same compound?
Answer: 0.5 µg/mL

Question: And the MIC (Escherichia coli; isolate 827002, Elevated AmpC)?
Answer: 0.03 µg/mL

Question: And the MIC (Escherichia coli; isolate 841741, Elevated AmpC)?
Answer: 0.25 µg/mL

Question: What about the MIC (Escherichia coli; isolate 850348, Elevated AmpC) of the same compound?
Answer: 1 µg/mL

Question: What about the MIC (Escherichia coli; isolate 850361, Elevated AmpC) of the same compound?
Answer: 0.06 µg/mL

Question: What about the MIC (Escherichia coli; isolate 1043714, Elevated AmpC) of the same compound?
Answer: 0.06 µg/mL

Question: What about the MIC (Escherichia coli; isolate 1047951, Elevated AmpC) of the same compound?
Answer: 0.12 µg/mL

Question: What about the MIC (Escherichia coli; isolate 1152443, CMY-DHA) of the same compound?
Answer: 0.5 µg/mL

Question: What about the MIC (Escherichia coli; isolate 1160345, CMY-DHA) of the same compound?
Answer: 0.5 µg/mL

Question: What about the MIC (Escherichia coli; isolate 1160670, CMY-DHA) of the same compound?
Answer: 0.12 µg/mL

Question: What about the MIC (Escherichia coli; isolate 1165173, CMY-DHA) of the same compound?
Answer: 0.25 µg/mL

Question: What about the MIC (Escherichia coli; isolate 1165490, CMY-DHA) of the same compound?
Answer: 0.5 µg/mL

Question: What about the MIC (Escherichia coli; isolate 1165546, CMY-DHA) of the same compound?
Answer: 0.5 µg/mL

Question: What about the MIC (Escherichia coli; isolate 1167103, CMY-DHA) of the same compound?
Answer: 0.5 µg/mL

Question: And the MIC (Escherichia coli; isolate 1167174, CMY-DHA)?
Answer: 4 µg/mL
